{"source": "PubChem BioAssay AID192", "about": "(DTP/NCI, 2004)", "system": "BDF1 mice, B16 melanoma ip, median survival T/C", "assay": "NCI In Vivo Anticancer Drug Screen. Data for tumor model B16 Melanoma (intraperitoneal) in B6D2F1 (BDF1) mice", "conditions": "endpoint: median survival time, higher = longer survival", "how_it_was_run": "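Tumor-bearing mice received test compound or vehicle. Survival or tumor size was then measured in both groups. The treated-group figure was divided by the control-group figure.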", "key": {"[1]": {"conditions": "dose: 50.0 mg/kg/injection, schedule: Q01DX009 (ip), vehicle: saline"}, "[2]": {"conditions": "dose: 100.0 mg/kg/injection, schedule: Q01DX009 (ip), vehicle: saline"}, "[3]": {"conditions": "dose: 200.0 mg/kg/injection, schedule: Q01DX009 (ip), vehicle: saline"}, "[4]": {"conditions": "dose: 50.0 mg/kg/injection, schedule: Q01DX009 (ip), vehicle: Klucel (hydroxypropylcellulose) (HPC)"}, "[5]": {"conditions": "dose: 100.0 mg/kg/injection, schedule: Q01DX009 (ip), vehicle: Klucel (hydroxypropylcellulose) (HPC)"}, "[6]": {"conditions": "dose: 50.0 mg/kg/injection, schedule: Q01DX009 (ip), vehicle: saline with Tween-80"}, "[7]": {"conditions": "dose: 100.0 mg/kg/injection, schedule: Q01DX009 (ip), vehicle: saline with Tween-80"}}, "note": "Inconclusive results and toxic doses are left out. Numbered stars: 1 amine (or outer) side, 2 acyl side, 3 side chain; on linkers, the order of the positions; unused ones are H or OH. Bridge positions count the residues as written; N and C are the ends. Square brackets hold non-standard residues; d marks the D form. Peptide text beside a SMILES is read from it. I, II: the chains in the order shown. Actinocin(1to9) = Cc1c2oc3c(C)ccc(C(=O)[*:2])c3nc-2c(C(=O)[*:1])c(N)c1=O; NMeV = CN[CH](C(=O)O)C(C)C; Sar = CNCC(=O)O"}
{"molecule": "CC(C)(C)OC(=O)NC(CCC(N)=O)C(=O)O", "note": "(stereo unspecified)", "values": [{"measurement": "T/C", "setting": "[1]", "result": "96 % of control"}, {"measurement": "T/C", "setting": "[2]", "result": "97 % of control"}, {"measurement": "T/C", "setting": "[3]", "result": "96 % of control"}]}
{"molecule": "CCC(C)C1NC(=O)C(NC(=O)c2c3nc4c(C(=O)NC5C(=O)NC(C(C)CC)C(=O)N6CCCC6C(=O)N(C)CC(=O)N(C)C(C(C)C)C(=O)OC5C)ccc(C)c4oc-3c(C)c(=O)c2N)C(C)OC(=O)C(C(C)C)N(C)C(=O)CN(C)C(=O)C2CCCN2C1=O", "note": "(stereo unspecified) (I: TIP[Sar][NMeV] / II: TIP[Sar][NMeV]; ester I:1-I:C, II:1-II:C; linker I:N-II:N via Actinocin(1to9); configuration not given here)", "values": [{"measurement": "T/C", "setting": "dose: 0.2 mg/kg/injection, schedule: Q01DX001 (ip), vehicle: water", "result": "120 % of control"}, {"measurement": "T/C", "setting": "dose: 0.4 mg/kg/injection, schedule: Q01DX001 (ip), vehicle: water", "result": "114 % of control"}, {"measurement": "T/C", "setting": "dose: 0.8 mg/kg/injection, schedule: Q01DX001 (ip), vehicle: water", "result": "123 % of control"}, {"measurement": "T/C", "setting": "dose: 12.5 micrograms/kg/injection, schedule: Q01DX009 (ip), vehicle: water", "result": "108 % of control"}, {"measurement": "T/C", "setting": "dose: 25.0 micrograms/kg/injection, schedule: Q01DX009 (ip), vehicle: water", "result": "119 % of control"}, {"measurement": "T/C", "setting": "dose: 75.0 micrograms/kg/injection, schedule: Q04DX003 (ip), vehicle: water", "result": "115 % of control"}, {"measurement": "T/C", "setting": "dose: 150.0 micrograms/kg/injection, schedule: Q04DX003 (ip), vehicle: water", "result": "114 % of control"}]}
{"molecule": "COc1ccc(N2C(=O)CC(Sc3ccccc3N)C2=O)cc1", "note": "(stereo unspecified)", "values": [{"measurement": "T/C", "setting": "dose: 25.0 mg/kg/injection, schedule: Q01DX009 (ip), vehicle: Klucel (hydroxypropylcellulose) (HPC)", "result": "94 % of control"}, {"measurement": "T/C", "setting": "[4]", "result": "86 % of control"}, {"measurement": "T/C", "setting": "[5]", "result": "97 % of control"}]}
{"molecule": "CC[C@@H](C)[C@@H]1NC(=O)C(NC(=O)C(CC(C)C)N(C)C(=O)C2CCCN2C(=O)C(C)O)C(C)OC(=O)C(Cc2ccc(OC)cc2)N(C)C(=O)C2CCCN2C(=O)C(CC(C)C)NC(=O)C(C)C(=O)C(C(C)C)OC(=O)C[C@H]1O", "note": "(stereo partly specified)", "values": [{"measurement": "T/C", "setting": "dose: 80.0 micrograms/kg/injection, schedule: Q01DX009 (ip), vehicle: clinical formulation", "result": "161 % of control"}, {"measurement": "T/C", "setting": "dose: 160.0 micrograms/kg/injection, schedule: Q01DX009 (ip), vehicle: clinical formulation", "result": "160 % of control"}, {"measurement": "T/C", "setting": "dose: 160.0 micrograms/kg/injection, schedule: Q01DX009 (ip), vehicle: distilled water + alcohol", "result": "160 % of control"}, {"measurement": "T/C", "setting": "dose: 320.0 micrograms/kg/injection, schedule: Q01DX009 (ip), vehicle: clinical formulation", "result": "153 % of control"}, {"measurement": "T/C", "setting": "dose: 320.0 micrograms/kg/injection, schedule: Q01DX009 (ip), vehicle: distilled water + alcohol", "result": "172 % of control"}]}
{"molecule": "CC[CH2][Pb]([CH2]CC)([CH2]CC)[O]C(=O)c1ccccc1", "values": [{"measurement": "T/C", "setting": "dose: 1.56 mg/kg/injection, schedule: Q01DX009 (ip), vehicle: Klucel (hydroxypropylcellulose) (HPC)", "result": "103 % of control"}, {"measurement": "T/C", "setting": "dose: 3.13 mg/kg/injection, schedule: Q01DX009 (ip), vehicle: Klucel (hydroxypropylcellulose) (HPC)", "result": "96 % of control"}]}
{"molecule": "CCCCCCCCCC(=O)CC", "values": [{"measurement": "T/C", "setting": "[4]", "result": "100 % of control"}, {"measurement": "T/C", "setting": "[5]", "result": "99 % of control"}, {"measurement": "T/C", "setting": "dose: 200.0 mg/kg/injection, schedule: Q01DX009 (ip), vehicle: Klucel (hydroxypropylcellulose) (HPC)", "result": "100 % of control"}]}
{"molecule": "OCc1cc2c([nH]c3ccccc32)c(C(O)CO)n1", "note": "(stereo unspecified)", "values": [{"measurement": "T/C", "setting": "dose: 20.0 mg/kg/injection, schedule: Q01DX009 (ip), vehicle: saline with Tween-80", "result": "102 % of control"}, {"measurement": "T/C", "setting": "dose: 40.0 mg/kg/injection, schedule: Q01DX009 (ip), vehicle: saline with Tween-80", "result": "99 % of control"}, {"measurement": "T/C", "setting": "dose: 80.0 mg/kg/injection, schedule: Q01DX009 (ip), vehicle: saline with Tween-80", "result": "97 % of control"}]}
{"molecule": "COC(=O)C1(C(=O)OC)C2C(=O)C3C(C21)C3(C(=O)OC(C)(C)C)C(=O)OC(C)(C)C", "note": "(stereo unspecified)", "values": [{"measurement": "T/C", "setting": "dose: 100.0 mg/kg/injection, schedule: Q04DX003 (ip), vehicle: Klucel (hydroxypropylcellulose) (HPC)", "result": "111 % of control"}, {"measurement": "T/C", "setting": "dose: 200.0 mg/kg/injection, schedule: Q04DX003 (ip), vehicle: Klucel (hydroxypropylcellulose) (HPC)", "result": "101 % of control"}, {"measurement": "T/C", "setting": "dose: 400.0 mg/kg/injection, schedule: Q04DX003 (ip), vehicle: Klucel (hydroxypropylcellulose) (HPC)", "result": "98 % of control"}]}
{"molecule": "CC(C)CC(Br)C(=O)NCC(=O)NC(Cc1ccccc1)C(=O)O", "note": "(stereo unspecified)", "values": [{"measurement": "T/C", "setting": "[6]", "result": "97 % of control"}, {"measurement": "T/C", "setting": "[7]", "result": "95 % of control"}, {"measurement": "T/C", "setting": "dose: 200.0 mg/kg/injection, schedule: Q01DX009 (ip), vehicle: saline with Tween-80", "result": "97 % of control"}]}
{"molecule": "CSCCC(NC(C)=O)C(=O)NNC(C)C", "note": "(stereo unspecified)", "values": [{"measurement": "T/C", "setting": "dose: 25.0 mg/kg/injection, schedule: Q01DX009 (ip), vehicle: saline", "result": "105 % of control"}, {"measurement": "T/C", "setting": "[1]", "result": "88 % of control"}, {"measurement": "T/C", "setting": "[2]", "result": "123 % of control"}, {"measurement": "T/C", "setting": "[3]", "result": "88 % of control"}, {"measurement": "T/C", "setting": "dose: 400.0 mg/kg/injection, schedule: Q01DX009 (ip), vehicle: saline", "result": "97 % of control"}]}
{"molecule": "CN1CCN(c2ccc([N+](=O)[O-])c3no[n+]([O-])c23)CC1", "values": [{"measurement": "T/C", "setting": "dose: 5.0 mg/kg/injection, schedule: Q01DX009 (ip), vehicle: saline with Tween-80", "result": "111 % of control"}, {"measurement": "T/C", "setting": "dose: 5.0 mg/kg/injection, schedule: Q01DX011 (ip), vehicle: saline with Tween-80", "result": "110 % of control"}, {"measurement": "T/C", "setting": "dose: 10.0 mg/kg/injection, schedule: Q01DX009 (ip), vehicle: saline with Tween-80", "result": "107 % of control"}, {"measurement": "T/C", "setting": "dose: 10.0 mg/kg/injection, schedule: Q01DX011 (ip), vehicle: saline with Tween-80", "result": "109 % of control"}]}
{"molecule": "CCN(CC)S(=O)(=O)c1ccc(OC)c(N)c1", "values": [{"measurement": "T/C", "setting": "dose: 25.0 mg/kg/injection, schedule: Q01DX009 (ip), vehicle: saline with Tween-80", "result": "107 % of control"}, {"measurement": "T/C", "setting": "[6]", "result": "100 % of control"}, {"measurement": "T/C", "setting": "dose: 50.0 mg/kg/injection, schedule: Q04DX003 (ip), vehicle: saline with Tween-80", "result": "104 % of control"}, {"measurement": "T/C", "setting": "[7]", "result": "105 % of control"}, {"measurement": "T/C", "setting": "dose: 100.0 mg/kg/injection, schedule: Q04DX003 (ip), vehicle: saline with Tween-80", "result": "104 % of control"}]}
